US20100069340A1, “PHARMACEUTICAL COMPOSITIONS OF AN SRC KINASE INHIBITOR AND AN AROMATASE INHIBITOR” (Wyeth, priority 2008, published 2010)
Read-outs that look alike come from different tables or passages of the source.

How the values were obtained:
MDA-MB-435 (ER neg) = test: Cell proliferation assay, MDA-MB-435; type: cell-based; conditions: Homo sapiens, MDA-MB-435, 72 h; 3 Day assay, complete medium (10% FCS)
Procedure: (§1) Cell lines were obtained from ATCC. Estrogen was obtained from SIGMA, 4-hydroxytamoxifen was obtained from SIGMA, Bosutinib was used for these studies. Charcoal-stripped serum and phenol red-free medium was obtained from Invitrogen. CellTiter Glo was obtained from Promega.
Cell cultures. Proliferation assays with cells in complete fetal calf serum were performed with medium containing phenol red. For all assays examining estrogen-dependence, cells were cultured in phenol red-free medium; DMEM/F12 (MCF7), RPMI1640 (MDA-MB-361, T47D) MEM (BT20, MDA-MB-231) McCoys5A modified (SKBR3), Leibowitz' L15 medium supplemented with 10 ng/mL insulin (MDA-MB-435 and MDA-MB-468) with 10% fetal bovine serum supplemented with glutamine and gentamicin. For proliferation assays, trypsinized cells were subjected to three cycles of centrifugation and resuspension in phenol red-free medium supplemented with charcoal stripped medium (5% final), glutamine and Pen/Strep. Cells were plated on day 0, with or without estrogen (10 nM final concentration). On day 1, 4-hydroxytamoxifen and SKI-606 or DMSO were added as a serial dilution. […] After mixing and two hours incubation on the bench, plates were read on an Envision reader. […] The 10 uM data point was dropped for these two lines since there was a clear plateau prior to the sharp drop in luminescence observed at 10 uM compound. […]

[1] = tested on: advanced or metastatic breast cancer; test: Phase 2 open-label study of bosutinib, efficacy; type: in vivo, human; conditions: 400 mg once-daily
Procedure: (§2) In a phase 2, open-label, study of bosutinib in subjects with advanced or metastatic breast cancer where bosutinib is given at 400 mg once-daily, 73 total patients were randomized. As of 9 Jun. […] All of the responding patients had ER/PgR+ metastatic disease, but were less heavily pretreated with chemotherapy than typical patients and none had received prior endocrine therapy. […] In that trial, the median PFS was 15 weeks for all patients, 15.6 weeks and 14.9 weeks in ER+ and/or PgR+ and ER+ and/or PgR+, HER2-patients subgroups, respectively. There were 51 ER/PgR+ patients enrolled in the trial and a little more than half had received prior endocrine therapy, out of them 33 patients were ER/PgR+, HER2-. The preliminary safety data available for 73 subjects as of 9 Jun. 2008 are consistent with data from other ongoing studies. TEAEs were most frequently associated with gastrointestinal disorders (diarrhea, 66%; nausea, 55%; vomiting, 47%; abdominal pain, 12%; dyspepsia, 10%), general disorders (fatigue, 26%, asthenia, 19%, peripheral oedema, 11%; pyrexia, 10%), infections and infestations (16%), metabolism disorders (ALT increase, 12%; AST increase, 12%, weight loss, 11%; anorexia, 18%), musculoskeletal disorders (anthralgia, 12%; back pain, 12%), headache (14%), and rash (14%). Out of all of these TEAEs, only gastrointestinal disorders (diarrhea, 64%; nausea, 51%; vomiting, 42%; abdominal pain, 10%), general disorders (fatigue, 16%, asthenia, 14%), metabolism disorders (ALT increase, 11%; AST increase, 10%; anorexia, 15%) and rash (10%) were considered at least possibly related to bosutinib.

[2] = Phase 2 open-label study of bosutinib, safety (TEAEs); type: in vivo, human; conditions: 400 mg once-daily, 73 subjects
Procedure: as §2

MDA-MB-231 (ER neg) = test: Cell proliferation assay (CellTiter Glo), MDA-MB-231; type: cell-based; conditions: Homo sapiens
Procedure: as §1
Cell cultures. Proliferation assays with cells in complete fetal calf serum were performed with medium containing phenol red. For all assays examining estrogen-dependence, cells were cultured in phenol red-free medium; DMEM/F12 (MCF7), RPMI1640 (MDA-MB-361, T47D) MEM (BT20, MDA-MB-231) McCoys5A modified (SKBR3), Leibowitz' L15 medium supplemented with 10 ng/mL insulin (MDA-MB-435 and MDA-MB-468) with 10% fetal bovine serum supplemented with glutamine and gentamicin. For proliferation assays, trypsinized cells were subjected to three cycles of centrifugation and resuspension in phenol red-free medium supplemented with charcoal stripped medium (5% final), glutamine and Pen/Strep. Cells were plated on day 0, with or without estrogen (10 nM final concentration). On day 1, 4-hydroxytamoxifen and SKI-606 or DMSO were added as a serial dilution. Cells were incubated for 7 days, after which CellTiter Glo (Promega) was added as recommended by the manufacturer. After mixing and two hours incubation on the bench, plates were read on an Envision reader. […] The 10 uM data point was dropped for these two lines since there was a clear plateau prior to the sharp drop in luminescence observed at 10 uM compound. The IC50 was calculated using a floating minima corresponding to the lowest luminescence value at 5 uM.
Cell proliferation assays were performed in two formats; a three day proliferation assay in fully supplemented medium with phenol red, and a 7 day proliferation assay in phenol red free medium supplemented with charcoal-stripped medium. […] ER positive T47D cells were slightly more sensitive to SKI-606 in the presence of estrogen. BT20 cells were equally sensitive to SKI-606 in stripped serum medium, regardless of whether estrogen was present. […]

Question: What does the source list for `COc1cc(Nc2c(C#N)cnc3cc(OCCCN4CCN(C)CC4)c(OC)cc23)c(Cl)cc1Cl` [bosutinib]?
Answer: IC50 (MDA-MB-435 (ER neg)): 3.4 µM; tumor shrinkage in the near response [1]: 29%; clinical benefit ([1]; 73 patients, responders plus stable disease ≧24 weeks): 27.4%; near response ([1]; of 73 patients): 1; partial response ([1]; of 73 patients): 4 subjects; stable disease ≧24 weeks ([1]; of 73 patients): 13 patients; median PFS ([1]; ER+ and/or PgR+ subgroup): 15.6 weeks; median PFS ([1]; ER+ and/or PgR+, HER2- subgroup): 14.9 weeks; median PFS ([1]; all patients): 15 weeks; TEAE ALT increase ([2]; all TEAEs): 12%; TEAE AST increase ([2]; all TEAEs): 12%; TEAE abdominal pain ([2]; all TEAEs): 12%; TEAE anorexia ([2]; all TEAEs): 18%; TEAE anthralgia ([2]; all TEAEs): 12%; TEAE asthenia ([2]; all TEAEs): 19%; TEAE back pain ([2]; all TEAEs): 12%; TEAE diarrhea ([2]; all TEAEs): 66%; TEAE dyspepsia ([2]; all TEAEs): 10%; TEAE fatigue ([2]; all TEAEs): 26%; TEAE headache ([2]; all TEAEs): 14%; TEAE infections and infestations ([2]; all TEAEs): 16%; TEAE nausea ([2]; all TEAEs): 55%; TEAE peripheral oedema ([2]; all TEAEs): 11%; TEAE pyrexia ([2]; all TEAEs): 10%; TEAE rash ([2]; all TEAEs): 14%; TEAE vomiting ([2]; all TEAEs): 47%; TEAE weight loss ([2]; all TEAEs): 11%; TEAE ALT increase, at least possibly related to bosutinib ([2]; related TEAEs): 11%; TEAE AST increase, at least possibly related to bosutinib ([2]; related TEAEs): 10%; TEAE abdominal pain, at least possibly related to bosutinib ([2]; related TEAEs): 10%; TEAE anorexia, at least possibly related to bosutinib ([2]; related TEAEs): 15%; TEAE asthenia, at least possibly related to bosutinib ([2]; related TEAEs): 14%; TEAE diarrhea, at least possibly related to bosutinib ([2]; related TEAEs): 64%; TEAE fatigue, at least possibly related to bosutinib ([2]; related TEAEs): 16%; TEAE nausea, at least possibly related to bosutinib ([2]; related TEAEs): 51%; TEAE rash, at least possibly related to bosutinib ([2]; related TEAEs): 10%; TEAE vomiting, at least possibly related to bosutinib ([2]; related TEAEs): 42%; IC50 (MDA-MB-231 (ER neg); MDA-MB-231, 72 h, 3 Day assay, complete medium (10% FCS), read-out: IC50 (uM) 10% FCS): 4.3 µM; IC50 (MDA-MB-231 (ER neg); MDA-MB-231, 168 h, 7 Day assay, charcoal stripped serum, no phenol red, 10 nM estrogen, read-out: IC50 (uM) E2): 5.05 µM; IC50 (MDA-MB-231 (ER neg); MDA-MB-231, 168 h, 7 Day assay, charcoal stripped serum, no phenol red, without estrogen, read-out: IC50 (uM) no E2): 5.1 µM
